In US20220000110A1, “COMPOSITIONS COMPRISING PYRIDINE CARBOXYLATE HERBICIDES AND CELLULOSE BIOSYNTHESIS INHIBITOR HERBICIDES” (priority 2018, published 2022):
Like-named read-outs stand apart in the source and are kept apart here.

Tests used:
Type in all cases: in vivo
[1] = tested on: Hordeum vulgare (spring barley); details: HORVS
Text: (§1) Greenhouse Trial Methodology—Evaluation of Postemergence Herbicidal Effect
(§2) Seeds of the desired test plant species were planted in a 90:10% v/v (volume/volume) mixture of PRO-MIX® BX (Premier Tech Horticulture, Quakertown, Pa., USA) and PROFILE® GREENS GRADE™ (Profile Products LLC, Buffalo Grove, Ill., USA) planting mixture, which typically has a pH of 5.2 to 6.2 and an organic matter content of at least 50 percent, in plastic pots with a surface area of 103.2 square centimeters (cm^2). In some aspects, to help ensure good germination and healthy plants, a fungicide treatment and/or other chemical or physical treatment was applied. The plants were grown for 7-36 days (d) in a greenhouse with an approximate 14-hour (h) photoperiod which was maintained at about 23° C. during the day and 22° C. during the night. Nutrients and water were added on a regular basis and supplemental lighting was provided with overhead metal halide 1000-Watt lamps as necessary. The plants were employed for testing when they reached the second or third true leaf stage.
(§3) Emulsifiable concentrates of each of each pyridine carboxylate herbicide (Compound A or Compound B) were prepared at 100 grams acid equivalent per liter (g ae/L). The emulsifiable concentrates also included a safener, at 120 grams active ingredient per liter (g ai/L). An aliquot of each emulsifiable concentrate was placed in a 25 mL glass vial and diluted with an aqueous mixture of 1.25% (v/v) ACTIROB® B esterified rapeseed oil (Bayer Crop Science, Research Triangle Park, N.C., USA) or MSO® Concentrate with LECI-TECH® methylated soybean oil (Loveland Products, Loveland, Colo., USA) to obtain concentrated stock solutions at the highest application rate for each herbicide, based upon a 12 milliliter (mL) application volume at a rate of 187 liters per hectare (L/ha). The concentrated stock solutions were further diluted with an aqueous mixture of 1.25% v/v ACTIROB® B or MSO® Concentrate with LECI-TECH® to obtain stock solutions at reduced application rates for each herbicide. Spray solutions of the herbicide combinations (Compound A or Compound B plus the CBI herbicide) were prepared by adding weighed amounts or aliquots of the CBI herbicide to the stock solutions of Compound A or Compound B to form 12-mL spray solutions in two-way combinations.
(§4) The spray solutions were applied to the plant material with an overhead Mandel track sprayer equipped with 8002E nozzles calibrated to deliver 187 L/ha over an application area of 0.503 square meters (m^2) at a spray height of 18 inches (43 centimeters (cm)) above the average plant canopy. Control plants were sprayed in the same manner with the solvent blank. All pyridine carboxylate herbicide (component a) application rates are given as “g ae/ha” and all CBI herbicide (component b) application rates are given as “g ai/ha.”
(§5) The treated plants and control plants were placed in a greenhouse as described above and watered by sub-irrigation to prevent wash-off of the test compounds. After 20-22 d, the condition of the test plants as compared with that of the control plants was determined visually and scored on a scale of 0 to 100 percent where 0 corresponds to no injury and 100 corresponds to complete kill.

[2] = tested on: Triticum aestivum (spring wheat); details: TRZAS
Text: as §1, §2, §3, §4, §5

[3] = tested on: Stellaria media (chickweed); experiment: Greenhouse postemergence herbicidal effect, visual injury after 20-22 d; details: Table 1, STEME
Text: as §1, §2, §3, §4, §5

[4] = tested on: Oryza sativa (common rice); experiment: as above; details: Table 1, ORYSA
Text: as §1, §2, §3, §4, §5

Kochia scoparia (kochia) = experiment: as above; details: KCHSC
Text: as §1, §2, §3, §4, §5

[5] = tested on: Helianthus annuus (common sunflower); experiment: as above; details: Table 1, HELAN
Text: as §1, §2, §3, §4, §5

[6] = tested on: Brassica napus (spring rape); experiment: as above; details: BRSNN
Text: as §1, §2, §3, §4, §5

[7] = tested on: Rumex obtusifolius (broad-leaf dock); experiment: as above; details: Table 1, RUMOB
Text: as §1, §2, §3, §4, §5

[8] = tested on: Abutilon theophrasti (velvetleaf); experiment: as above; details: ABUTH
Text: as §1, §2, §3, §4, §5

[9] = tested on: Viola tricolor (wild pansy); experiment: as above; details: VIOTR
Text: as §1, §2, §3, §4, §5

[10] = tested on: Digitaria sanguinalis (large crabgrass); experiment: as above; details: DIGSA
Text: as §1, §2, §3, §4, §5

[11] = tested on: Ipomoea hederacea (ivyleaf morningglory); experiment: as above; details: IPOHE
Text: as §1, §2, §3, §4, §5

[12] = tested on: Amaranthus retroflexus (pigweed); experiment: as above; details: AMARE
Text: as §1, §2, §3, §4, §5

N#CCOC(=O)c1nc(-c2ccc3cc[nH]c3c2F)c(F)c(N)c1Cl [Compound A, cyanomethyl 4-amino-3-chloro-5-fluoro-6-(7-fluoro-1H-indol-6-yl)pyridine-2-carboxylate]
Obs % visual injury ([1]; Table 3, Compound A 7.5 g/ha): 8%
Obs % visual injury ([1]; Table 3, Compound A 10 g/ha): 5%
Obs % visual injury ([1]; Table 3, Compound A 15 g/ha): 3%
Obs % visual injury ([1]; Table 4, Compound A 7.5 g/ha): 8%
Obs % visual injury ([1]; Table 4, Compound A 10 g/ha): 5%
Obs % visual injury ([1]; Table 4, Compound A 15 g/ha): 3%
Obs % visual injury ([2]; Table 3, Compound A 7.5 g/ha): 3%
Obs % visual injury ([2]; Table 3, Compound A 10 g/ha): 3%
Obs % visual injury ([2]; Table 3, Compound A 15 g/ha): 0%
Obs % visual injury ([2]; Table 4, Compound A 7.5 g/ha): 3%
Obs % visual injury ([2]; Table 4, Compound A 10 g/ha): 3%
Obs % visual injury ([2]; Table 4, Compound A 15 g/ha): 0%
Obs % visual injury ([3]; Compound A 7.5 g/ha): 89%
Obs % visual injury ([3]; Compound A 10 g/ha): 90%
Obs % visual injury ([4]; Compound A 7.5 g/ha): 3%
Obs % visual injury ([4]; Compound A 10 g/ha): 8%
Obs % visual injury (Kochia scoparia (kochia); Table 1, Compound A 7.5 g/ha): 75%
Obs % visual injury (Kochia scoparia (kochia); Table 1, Compound A 10 g/ha): 73%
Obs % visual injury (Kochia scoparia (kochia); Table 2, Compound A 7.5 g/ha): 60%
Obs % visual injury (Kochia scoparia (kochia); Table 2, Compound A 10 g/ha): 65%
Obs % visual injury (Kochia scoparia (kochia); Table 3, Compound A 7.5 g/ha): 70%
Obs % visual injury (Kochia scoparia (kochia); Table 3, Compound A 10 g/ha): 70%
Obs % visual injury (Kochia scoparia (kochia); Table 3, Compound A 15 g/ha): 70%
Obs % visual injury (Kochia scoparia (kochia); Table 4, Compound A 7.5 g/ha): 70%
Obs % visual injury (Kochia scoparia (kochia); Table 4, Compound A 10 g/ha): 70%
Obs % visual injury (Kochia scoparia (kochia); Table 4, Compound A 15 g/ha): 70%
Obs % visual injury ([5]; Compound A 7.5 g/ha): 90%
Obs % visual injury ([5]; Compound A 10 g/ha): 89%
Obs % visual injury ([6]; Table 1, Compound A 7.5 g/ha): 65%
Obs % visual injury ([6]; Table 1, Compound A 10 g/ha): 65%
Obs % visual injury ([6]; Table 2, Compound A 7.5 g/ha): 73%
Obs % visual injury ([6]; Table 2, Compound A 10 g/ha): 83%
Obs % visual injury ([7]; Compound A 7.5 g/ha): 20%
Obs % visual injury ([7]; Compound A 10 g/ha): 13%
Obs % visual injury ([8]; Table 1, Compound A 7.5 g/ha): 68%
Obs % visual injury ([8]; Table 1, Compound A 10 g/ha): 80%
Obs % visual injury ([8]; Table 2, Compound A 7.5 g/ha): 68%
Obs % visual injury ([8]; Table 2, Compound A 10 g/ha): 78%
Obs % visual injury ([9]; Table 1, Compound A 7.5 g/ha): 38%
Obs % visual injury ([9]; Table 1, Compound A 10 g/ha): 15%
Obs % visual injury ([9]; Table 2, Compound A 7.5 g/ha): 10%
Obs % visual injury ([9]; Table 2, Compound A 10 g/ha): 18%
Obs % visual injury ([10]; Table 1, Compound A 7.5 g/ha): 35%
Obs % visual injury ([10]; Table 1, Compound A 10 g/ha): 38%
Obs % visual injury ([10]; Table 2, Compound A 7.5 g/ha): 45%
Obs % visual injury ([10]; Table 2, Compound A 10 g/ha): 25%
Obs % visual injury ([11]; Table 1, Compound A 7.5 g/ha): 20%
Obs % visual injury ([11]; Table 1, Compound A 10 g/ha): 25%
Obs % visual injury ([11]; Table 2, Compound A 7.5 g/ha): 3%
Obs % visual injury ([11]; Table 2, Compound A 10 g/ha): 8%
Obs % visual injury ([12]; Table 1, Compound A 7.5 g/ha): 88%
Obs % visual injury ([12]; Table 1, Compound A 10 g/ha): 88%
Obs % visual injury ([12]; Table 3, Compound A 7.5 g/ha): 78%
Obs % visual injury ([12]; Table 3, Compound A 10 g/ha): 78%
Obs % visual injury ([12]; Table 3, Compound A 15 g/ha): 83%
Obs % visual injury ([12]; Table 4, Compound A 7.5 g/ha): 78%
Obs % visual injury ([12]; Table 4, Compound A 10 g/ha): 78%
Obs % visual injury ([12]; Table 4, Compound A 15 g/ha): 83%
